Data on three molecules can be found in patent US20220409727A1, “Metal Complexes Bearing Bisstyryl-Bipyridine Ligand and Their Use as Photosensitizer Agent in One and Two-Photon Photodynamic Therapy” (Paris Sciences et Lettres, priority 2019, published 2022).

For data set [1] the following is noted: reference for the measurement; cited from earlier work.
For data set [2] the following is noted: CH3CN; cited from earlier work.
Data set [3] deals with human glioblastoma astrocytoma (U373) cells. As to the kind of experiment: (Photo-)cytotoxicity on 2D cell monolayers, resazurin assay, U373. The note with it: read-out: IC50 dark; U373, dark; 4 h incubation; compounds 1-3 as chloride salts.
Experimental: (§2) The human glioblastoma astrocytoma (U373) cell line was cultured in MEM medium supplemented with 10% FBS, 1% NEAA (non-essential amino-acids) and 1% penicillin/streptomycin. […] The human retinal epithelial cells (RPE-1, non-cancerous cells immortalized with hTERT) were cultured in DMEM-F12 medium supplemented with 10% FBS and 1% penicillin/streptomycin. All cell lines were obtained from the American Type Culture Collection (ATCC) and cultured at 37° C. and 5% CO2. Before an experiment, the cells were passaged three times.
(§3) The cytotoxicity of the compounds was assessed by measuring cell viability using a fluorometric resazurin assay. The cultivated cells were seeded in triplicates in 96 well plates with a density of 4000 cells per well in 100 μL of media. After 24 h, the medium was removed and the cells were treated with increasing concentrations of the compound diluted in cell media achieving a total volume of 200 μL. The cells were incubated with the compound for 4 h. After this time, the media was removed and replaced with 200 μL of fresh medium. For the phototoxicity studies, the cells were exposed to light with an Atlas Photonics LUMOS BIO irradiator. Each well was constantly illuminated with either a 480 nm or 540 nm irradiation. During this time, the temperature was maintained constantly at 37° C. The cells were grown in the incubator for additional 44 h. For the determination of the dark cytotoxicity, the cells were not irradiated and after the medium exchange directly incubated for 44 h. After this time, the medium was replaced with fresh medium containing resazurin with a final concentration of 0.2 mg/mL. After 4 h incubation, the amount of the fluorescent product resorufin was determined upon excitation at 540 nm and measurement its emission at 590 nm using a SpectraMax M2 Microplate Reader (Molecular Devices).
(§4) The obtained data was analyzed with the GraphPad Prism software.
The subject of data set [4] is mouse colon carcinoma (CT-26) cells. As to the kind of experiment: (Photo-)cytotoxicity on 2D cell monolayers, resazurin assay, CT-26. The note with it: read-out: IC50 dark; CT-26, dark; 4 h incubation; compounds 1-3 as chloride salts.
Experimental: as §2, §3, §4
Data set [5] has as its system human cervical carcinoma (HeLa) cells. As to the kind of experiment: (Photo-)cytotoxicity on 2D cell monolayers, resazurin assay, HeLa. Format: cell-based. The note with it: dark, 4 h incubation, compounds 1-3 as chloride salts, read-out: IC50 dark. The text has this:
Before an experiment, the cells were passaged three times.

In data set [6] the test system is HeLa MCTS. As to the kind of experiment: (Photo-)cytotoxicity on 3D multicellular tumor spheroids (ATP, CellTiter-Glo 3D). The data set is classed as cell-based, human. The note with it: dark, 12 h incubation, read-out: IC50 dark. The method, then: (§1) autoclave. The hot emulsion was transferred into wells (50 μL per well) of a 96 cell culture well plate. The plates were exposed for 3 h to UV irradiation to ensure the sterility and allow the agarose solution to cool down. After this time, the agarose was overlayed with a HeLa cell suspension at a density of 3000 cells per well in 150 μL of media. The MCTS were cultivated and maintained at 37° C. in a cell culture incubator at 37° C. with 5% CO2 atmosphere. The culture media was replaced every two days. Within two-three days MCTs were formed from the cell suspension. The formation as well as integrity, diameter and volume of the MCTs was monitored by an Axio Observer Z1 (Carl Zeiss) phase contrast microscope. The volume was calculated using the following formula: V=4/3πr^3. The luminescence images along the z-axis were captured by a one-(λex=458 nm, λem=600-750 nm) or two-photon (λex=800 nm, λem=600-750 nm) excitation in the z-stack mode with a an LSM 880 (Carl Zeiss) laser scanning confocal microscope equipped with Argon and a Coherent Chameleon 2-Photon laser and a GaAsP detector.
The cytotoxicity of the compounds in 3D multicellular tumor spheroids (MCTS) was assessed by measurement of the ATP concentration. MCTS were treated with increasing concentrations of the compound (2% DMSO, v %) by replacing 50% of the media with drug supplemented media and incubation for 12 h. After this time, the MCTS were divided in three identical groups. The first group was strictly kept in the dark. The second group was exposed to a one-photon irradiation (500 nm, 10 J/cm^2) using a LED and the third group was exposed to a two-photon irradiation (800 nm, 10 J/cm^2) with a section interval of 5 μm using a LSM 880 (Carl Zeiss, Germany) laser scanning confocal microscope equipped with a Coherent Chameleon 2-Photon laser. After the irradiation, all groups were incubated additional 48 h. The ATP concertation was measured using a CellTiter-Glo 3D Cell Viability kit (Promega) by measuring the generated chemiluminescence with an infinite M200 PRO (Tecan) plate reader.

In data set [7] the test system is HeLa MCTS. Description: 3D multicellular tumor spheroids (MCTS) growth inhibition assay. The data set is classed as cell-based, human. As for the experimental part:
as §1
MCTS were treated with the corresponding compounds (20 μM 1-7, 20 μM tetraphenylporphyrin H2TPP, 10 μM cisplatin, 30 μM cisplatin, 2% DMSO, v %) by replacing 50% of the media with drug supplemented media in the dark for three days. After this time, the MCTS were exposed to a two-photon irradiation (800 nm, 10 J/cm^2) with a section interval of 5 μm using a LSM 880 (Carl Zeiss) laser scanning confocal microscope equipped with a Coherent Chameleon 2-Photon laser. The cell culture media was replaced every two days. The integrity and diameter of the MCTs was monitored with an Axio Observer Z1 (Carl Zeiss) phase contrast microscope every 24 h.

Consider `O=C([O-])c1c(Cl)c(Cl)c(Cl)c(Cl)c1-c1c2cc(I)c(=O)c(I)c-2oc2c(I)c([O-])c(I)cc12.[Na+].[Na+]` [Rose Bengal], for which the “Φ (singlet oxygen quantum yield of the reference)” value in data set [1] was 76%.
Regarding `[Cl-].[Cl-].[Ru+2].c1ccc(-c2ccccn2)nc1.c1ccc(-c2ccccn2)nc1.c1ccc(-c2ccccn2)nc1` [[Ru(bipy)3]Cl2], the “Φem (luminescence quantum yield of the reference)” value in data set [2] is 5.9%.
For the molecule `N.N.[Cl][Pt][Cl]` [cisplatin, reference compound], the 50% inhibitory concentration (IC50) stood at 17.6 ± 1.7 µM in data set [3], 6.5 ± 1.1 µM in data set [4], 10.5 ± 0.8 µM in data set [5] and 18.6 ± 1.3 µM in data set [6]. Further, the “effect on the tumours growth (MCTS volume) at 10 μM” value in data set [7] (10 μM) is reported as “weak effect”. In data set [7] (30 μM), the “effect on the tumours growth (MCTS volume) at 30 μM” value was “significantly decreasing the volume”.
